{"source": "patent US20260248748A1", "about": "“LIPOOLIGOUREAS, PHARMACEUTICAL COMPOSITION, AND LIPOOLIGOUREAS FOR USE AS MEDICAMENT” (priority 2022, published 2026)", "key": {"[1]": {"test_system": "Enterococcus faecalis ATCC 14506", "format": "cell-based", "conditions": "LB medium, 24 h, 30° C.", "protocol": "(§1) All strains were cultured in LB medium (lysogenic broth).\n(§2) The test compounds were dissolved in water. […] Data were obtained from three independent experiments."}, "[2]": {"test_system": "Escherichia coli ST2-8624 O157:H7", "format": "cell-based", "conditions": "LB medium, 24 h, 30° C.", "protocol": "as §1, §2"}, "[3]": {"test_system": "Klebsiella pneumoniae PCM 1", "format": "cell-based", "conditions": "LB medium, 24 h, 30° C.", "protocol": "as §1, §2"}, "[4]": {"test_system": "Pseudomonas aeruginosa PAO1 PCM 499", "format": "cell-based", "conditions": "LB medium, 24 h, 30° C.", "protocol": "as §1, §2"}, "[5]": {"test_system": "Salmonella sv. typhimurium TT622", "format": "cell-based", "conditions": "24 h", "protocol": "as §1, §2"}, "[6]": {"test_system": "Staphylococcus aureus ATCC 29213", "format": "cell-based", "conditions": "LB medium, 24 h, 30° C.", "protocol": "as §1, §2"}, "[7]": {"test_system": "Staphylococcus epidermidis ATCC 12228", "format": "cell-based", "conditions": "LB medium, 24 h, 30° C.", "protocol": "as §1, §2"}, "[8]": {"test_system": "Yersinia enterocolitica PCM 2081", "format": "cell-based", "conditions": "LB medium, 24 h, 30° C.", "protocol": "as §1, §2"}, "[9]": {"test_system": "Methicillin-resistant Staphylococcus aureus (MRSA) 401/5", "conditions": "MRSA strain (+) 401/5; LB medium, 24 h, 30° C.", "text": "(§3) All bacterial strains were obtained from the Polish Collection of Microorganisms (PCM) or American Type Culture Collection (ATCC). Gram-positive bacterial strains: Staphylococcus aureus ATCC 29213, Staphylococcus epidermidis ATCC 12228, Enterococcus faecalis ATCC 14506. Methicillin-resistant Staphylococcus aureus (MRSA) bacterial strains: Staphylococcus aureus 401/5, Staphylococcus aureus 4811/13, Staphylococcus aureus 5288/13. Gram-negative bacterial strains: Escherichia coli ST2-8624 O157:H7, Pseudomonas aeruginosa PAO1 PCM 499, Klebsiella pneumoniae PCM 1, Salmonella sv. typhimurium TT622, and Yersinia enterocolitica PCM 2081. All strains were cultured in LB medium (lysogenic broth).\n(§4) 10 mL of LB medium was inoculated with the material from a single bacterial colony and cultured at 30° C. with shaking overnight. The optical density of overnight cultures (at 600 nm) was then brought to 0.05 by dilution with a fresh portion of LB medium. The test compounds were dissolved in water. Serial dilutions of the compounds were performed in LB medium ranging from 5 to 50 μg/mL (final concentrations). The experiment was carried out by adding 100 μL of each prepared dilution to 100 μL of diluted overnight bacterial culture in the wells of a 96-well titer plate. […] Optical density measurements were conducted using a TECAN Sunrise plate reader. Data were obtained from three independent experiments."}, "[10]": {"test_system": "Methicillin-resistant Staphylococcus aureus (MRSA) 4811/13", "conditions": "MRSA strain (+) 4811/13; LB medium, 24 h, 30° C.", "text": "as §3, §4"}, "[11]": {"test_system": "Methicillin-resistant Staphylococcus aureus (MRSA) 5288/13", "conditions": "MRSA strain (+) 5288/13; LB medium, 24 h, 30° C.", "text": "as §3, §4"}, "[12]": {"test_system": "strains of methicillin-resistant Staphylococcus aureus (MRSA)", "experiment": "Activity against MRSA strains (summary of the MIC results)", "format": "cell-based", "conditions": "in words, from the MIC values of Table 1", "protocol": "as §1, §2\nThe results of the measurements summarized in Table 1 indicate that all of the lipooligoureas tested show varying activity against the bacterial strains tested. Lipooligoureas according to the invention show activity against both gram-positive and gram-negative bacterial strains. The results obtained indicate a certain degree of selectivity of the lipooligoureas according to the invention against gram-positive strains of Staphylococcus aureus ATCC 29213 and Staphylococcus epidermidis ATCC 12228, for which by far the highest activity of the tested lipooligoureas was observed, i.e. the lowest values of MIC. This trend is also reflected in the activity against strains of methicillin-resistant Staphylococcus aureus (MRSA)."}, "[13]": {"conditions": "(−) Salmonella sv. typhimurium TT622, LB medium, 30° C."}}, "note": "Where two headings read alike, the source gives them in different places.", "data": [{"smiles": "CCCCCCCCCC(=O)N[C@H](CNC(=O)N[C@@H](CCCCN)CNC(=O)N[C@@H](CCCCN)CNC(=O)N[C@H](CNC(=O)N[C@@H](CCCCN)CNC(N)=O)CC(C)C)Cc1ccccc1", "note": "[LOU1]", "values": [{"measurement": "MIC", "setting": "[1]", "result": "n.d. (n.d. = not determined, i.e., the MIC value was higher than 50 μg/mL)"}, {"measurement": "MIC", "setting": "[2]", "result": "n.d. (n.d. = not determined, i.e., the MIC value was higher than 50 μg/mL)"}, {"measurement": "MIC", "setting": "[3]", "result": "n.d. (n.d. = not determined, i.e., the MIC value was higher than 50 μg/mL)"}, {"measurement": "MIC", "setting": "[4]", "result": "n.d. (n.d. = not determined, i.e., the MIC value was higher than 50 μg/mL)"}, {"measurement": "MIC", "setting": "[5]; [13]", "result": "n.d. (n.d. = not determined, i.e., the MIC value was higher than 50 μg/mL)"}, {"measurement": "MIC", "setting": "[6]", "result": 30, "unit": "µg/mL"}, {"measurement": "MIC", "setting": "[7]", "result": 30, "unit": "µg/mL"}, {"measurement": "MIC", "setting": "[8]", "result": "n.d. (n.d. = not determined, i.e., the MIC value was higher than 50 μg/mL)"}, {"measurement": "MIC", "setting": "[9]", "result": 30, "unit": "µg/mL"}, {"measurement": "MIC", "setting": "[10]", "result": 30, "unit": "µg/mL"}, {"measurement": "MIC", "setting": "[11]", "result": 40, "unit": "µg/mL"}]}, {"smiles": "CCCCCCCCCC(=O)N[C@H](CNC(=O)N[C@@H](CCN)CNC(=O)N[C@@H](CCN)CNC(=O)N[C@H](CNC(=O)N[C@H](CNC(N)=O)CC(C)C)CC(C)C)Cc1ccccc1", "note": "[LOU2]", "values": [{"measurement": "MIC", "setting": "[1]", "result": 20, "unit": "µg/mL"}, {"measurement": "MIC", "setting": "[2]", "result": 30, "unit": "µg/mL"}, {"measurement": "MIC", "setting": "[3]", "result": 30, "unit": "µg/mL"}, {"measurement": "MIC", "setting": "[4]", "result": 30, "unit": "µg/mL"}, {"measurement": "MIC", "setting": "[5]", "result": 30, "unit": "µg/mL"}, {"measurement": "MIC", "setting": "[6]", "result": 10, "unit": "µg/mL"}, {"measurement": "MIC", "setting": "[7]", "result": 10, "unit": "µg/mL"}, {"measurement": "MIC", "setting": "[8]", "result": 30, "unit": "µg/mL"}, {"measurement": "MIC", "setting": "[9]", "result": 10, "unit": "µg/mL"}, {"measurement": "MIC", "setting": "[10]", "result": 10, "unit": "µg/mL"}, {"measurement": "MIC", "setting": "[11]", "result": 10, "unit": "µg/mL"}, {"measurement": "activity against strains of methicillin-resistant Staphylococcus aureus (MRSA)", "setting": "[12]", "result": "particularly high activity"}]}, {"smiles": "CCCCCCCCCC(=O)N[C@H](CNC(=O)N[C@@H](CCN)CNC(=O)N[C@H](CNC(=O)N[C@H](CNC(=O)N[C@@H](CCN)CNC(N)=O)CC(C)C)CC(C)C)Cc1ccccc1", "note": "[LOU3]", "values": [{"measurement": "MIC", "setting": "[1]", "result": 5, "unit": "µg/mL"}, {"measurement": "MIC", "setting": "[2]", "result": 10, "unit": "µg/mL"}, {"measurement": "MIC", "setting": "[3]", "result": 20, "unit": "µg/mL"}, {"measurement": "MIC", "setting": "[4]", "result": 10, "unit": "µg/mL"}, {"measurement": "MIC", "setting": "[5]", "result": 20, "unit": "µg/mL"}, {"measurement": "MIC", "setting": "[6]", "result": 5, "unit": "µg/mL"}, {"measurement": "MIC", "setting": "[7]", "result": 5, "unit": "µg/mL"}, {"measurement": "MIC", "setting": "[8]", "result": 10, "unit": "µg/mL"}, {"measurement": "MIC", "setting": "[9]", "result": 5, "unit": "µg/mL"}, {"measurement": "MIC", "setting": "[10]", "result": 5, "unit": "µg/mL"}, {"measurement": "MIC", "setting": "[11]", "result": 5, "unit": "µg/mL"}, {"measurement": "activity against strains of methicillin-resistant Staphylococcus aureus (MRSA)", "setting": "[12]", "result": "particularly high activity"}]}, {"smiles": "CCCCCCCCCC(=O)N[C@H](CNC(=O)N[C@@H](CCN)CNC(=O)N[C@@H](CCN)CNC(=O)N[C@H](CNC(=O)N[C@@H](CCN)CNC(N)=O)CC(C)C)Cc1ccccc1", "note": "[LOU4]", "values": [{"measurement": "MIC", "setting": "[1]", "result": 40, "unit": "µg/mL"}, {"measurement": "MIC", "setting": "[2]", "result": "n.d. (n.d. = not determined, i.e., the MIC value was higher than 50 μg/mL)"}, {"measurement": "MIC", "setting": "[3]", "result": "n.d. (n.d. = not determined, i.e., the MIC value was higher than 50 μg/mL)"}, {"measurement": "MIC", "setting": "[4]", "result": "n.d. (n.d. = not determined, i.e., the MIC value was higher than 50 μg/mL)"}, {"measurement": "MIC", "setting": "[5]; [13]", "result": "n.d. (n.d. = not determined, i.e., the MIC value was higher than 50 μg/mL)"}, {"measurement": "MIC", "setting": "[6]", "result": 20, "unit": "µg/mL"}, {"measurement": "MIC", "setting": "[7]", "result": 20, "unit": "µg/mL"}, {"measurement": "MIC", "setting": "[8]", "result": "n.d. (n.d. = not determined, i.e., the MIC value was higher than 50 μg/mL)"}, {"measurement": "MIC", "setting": "[9]", "result": 20, "unit": "µg/mL"}, {"measurement": "MIC", "setting": "[10]", "result": 30, "unit": "µg/mL"}, {"measurement": "MIC", "setting": "[11]", "result": 30, "unit": "µg/mL"}]}]}
